Converted amounts (≈) assume the structure as drawn.
Experiments:
solubility in water = format: physicochemical; settings: crystalline forms of Compound I (anhydrous free base)
[1] = relative stability of crystalline forms (turnover experiments); format: physicochemical; settings: for relative phase stability of the crystalline form: relationship between polymorphs of Compound I
Experimental: Crystalline Form II was produced by re-crystallization of Form I in isopropyl acetate and heptane 1:1 at room temperature. Form II was characterized using XRPD, ssNMR, DSC, TGA and IR. […] 17 hr, IPAc 60° C. for one day, H2O 60° C. over two weeks, three days, NMP-water 1-1 35° C. over three days.

Row | Compound | relative phase stability of the crystalline form [1] | also measured
1 | CS(=O)(=O)n1cc2c(n1)CN([C@H]1CO[C@H](c3cc(F)ccc3F)[C@@H](N)C1)C2 [Compound I, (2R,3S,5R)-2-(2,5-Difluorophenyl)-5-[2-(methylsulfonyl)-2,6-dihydropyrrolo[3,4-c]pyrazol-5(4H)-yl]tetrahydro-2H-pyran-3-amine] | – | solubility (solubility in water): ~2000 µg/mL (≈ 5.02 mM)
2 | CS(=O)(=O)n1cc2c(n1)CN([C@H]1CO[C@H](c3cc(F)ccc3F)[C@@H](N)C1)C2 [Form IV, (2R,3S,5R)-2-(2,5-Difluorophenyl)-5-[2-(methylsulfonyl)-2,6-dihydropyrrolo[3,4-c]pyrazol-5(4H)-yl]tetrahydro-2H-pyran-3-amine] | metastable to Form I and II | –
3 | CS(=O)(=O)n1cc2c(n1)CN([C@H]1CO[C@H](c3cc(F)ccc3F)[C@@H](N)C1)C2 [Form II, (2R,3S,5R)-2-(2,5-Difluorophenyl)-5-[2-(methylsulfonyl)-2,6-dihydropyrrolo[3,4-c]pyrazol-5(4H)-yl]tetrahydro-2H-pyran-3-amine] | – | conversion of Form II into Form I ([1]; turnover experiments with 50-50 seed: DCM-Heptane 25° C., IPAc 25° C. and 60° C., H2O 60° C., NMP-water 1-1 35° C.): slow but observed in all turnover experiments

More lines, main results first:

Row | relative phase stability of the crystalline form [1] | Compound | also measured
4 | metastable to Form I and II | CS(=O)(=O)n1cc2c(n1)CN([C@H]1CO[C@H](c3cc(F)ccc3F)[C@@H](N)C1)C2 [Form III, (2R,3S,5R)-2-(2,5-Difluorophenyl)-5-[2-(methylsulfonyl)-2,6-dihydropyrrolo[3,4-c]pyrazol-5(4H)-yl]tetrahydro-2H-pyran-3-amine] | –
5 | most stable phase above 13 °C | CS(=O)(=O)n1cc2c(n1)CN([C@H]1CO[C@H](c3cc(F)ccc3F)[C@@H](N)C1)C2 [Form I, (2R,3S,5R)-2-(2,5-Difluorophenyl)-5-[2-(methylsulfonyl)-2,6-dihydropyrrolo[3,4-c]pyrazol-5(4H)-yl]tetrahydro-2H-pyran-3-amine] | –
